Tests used:
[1] = target: T1, Human immunodeficiency virus type 1 reverse transcriptase (Human immunodeficiency virus 1, UniProt Q72547); assay: Compound was evaluated for its inhibitory activity against recombinant HIV-1 Reverse transcriptase using cell free RT inhibition assay
[2] = test system: Human immunodeficiency virus 1; assay: Inhibitory activity against NNI-resistant HIV-1 strain A17 with Y181C,K103N mutation; type: functional, organism-based
[3] = test system: Human immunodeficiency virus 1; assay: Inhibitory activity against NNI-resistant HIV-1 strain A17 with Y181C mutation; type: functional, organism-based
[4] = Inhibit the replication of the HIV-1 strain […] in human peripheral blood mononuclear cell; type: functional
H9 = assay: Inhibitory activity against multidrug resistant HIV-1 strain RT-MDR; type: functional, cell-based; details: Homo sapiens
[5] = target: T1, Human immunodeficiency virus type 1 reverse transcriptase; assay: Binding affinity against HIV reverse transcriptase (Estimated Ki)
[6] = Compound was evaluated for its ability to inhibit the replication of the HIV-1 strain […] in human peripheral blood mononuclear cells; type: functional

| IC50 [1] [µM] | Structure (SMILES) | IC50 [2] [µM] | IC50 [3] [µM] | IC50 [4] [µM] | IC50 (H9) [µM] | Ki [5] [µM] | IC50 [6] [µM] |
| --- | --- | --- | --- | --- | --- | --- | --- |
| > 100 | C[C@H](/N=C(\S)Nc1ccc(Cl)cn1)c1ccccc1 | – | – | – | – | – | – |
| – | Fc1ccccc1CCNC(=S)Nc1ccc(Br)cn1 | 41 | 0.2 | < 0.001 | 0.005 | 0.6 | – |
| > 100 | C[C@H](NC(=S)Nc1ccccn1)C1CCCCC1 | – | – | > 1 | – | > 100 | – |
| > 100 | C[C@@H](/N=C(\S)Nc1ccccn1)C1CCCCC1 | – | – | > 1 | – | > 100 | – |
| > 100 | C[C@H](/N=C(\S)Nc1ccc(Cl)cn1)C1CCCCC1 | – | – | > 1 | – | > 100 | – |
| > 100 | C[C@H](NC(=S)Nc1nccs1)C1CCCCC1 | – | – | > 1 | – | > 100 | – |
| > 100 | C[C@H](/N=C(\S)Nc1ccc(Br)cn1)C1CCCCC1 | – | – | > 1 | – | > 100 | – |
| > 100 | C[C@H](/N=C(\S)Nc1ccc(Br)cn1)c1ccccc1 | – | – | > 1 | – | – | – |
| – | CC(C)Nc1cccnc1N1CCN(C(=O)c2cc3cc(NS(C)(=O)=O)ccc3[nH]2)CC1 [DELAVIRDINE] | > 100 | 50 | 0.009 | 0.4 | – | – |
| – | Cc1ccnc2c1NC(=O)c1cccnc1N2C1CC1 [NEVIRAPINE] | > 100 | > 100 | 0.034 | 5 | – | – |
| – | S=C(NCCc1ccccn1)Nc1ccc(Br)cn1 [TROVIRDINE] | > 100 | 0.5 | 0.007 | 0.02 | 0.6 | – |

| Structure (SMILES) | IC50 [1] [µM] | IC50 [2] [µM] | IC50 [3] [µM] | IC50 [4] [µM] | IC50 (H9) [µM] | Ki [5] [µM] | IC50 [6] [µM] |
| --- | --- | --- | --- | --- | --- | --- | --- |
| C[C@@H](NC(=S)Nc1ccc(Cl)cn1)c1ccccc1 | 1.2 | 10.2 | 0.2 | 0.01 | 0.01 | – | – |
| C[C@@H](NC(=S)Nc1ccc(Br)cn1)C1CCCCC1 | 1.2 | 10 | 0.4 | – | 0.2 | 1.1 | 0.001 |
| C[C@@H](/N=C(\S)Nc1ccc(Cl)cn1)C1CCCCC1 | 1.4 | 8.2 | 0.07 | 0.025 | 0.06 | 1.2 | – |
| C[C@@H](/N=C(\S)Nc1nccs1)C1CCCCC1 | 13 | 5.8 | 0.9 | 0.001 | 5.6 | 12 | – |
| C[C@@H](NC(=S)Nc1ccc(Br)cn1)c1ccccc1 | 1.6 | 2.7 | 0.01 | 0.01 | 0.005 | – | – |

Reference: ChEMBL document CHEMBL1133139, “Stereochemistry of halopyridyl and thiazolyl thiourea compounds is a major determinant of their potency as nonnucleoside inhibitors of HIV-1 reverse transcriptase” (Bioorg Med Chem Lett, 2000)
